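Interpolation was linear, between the two tested concentrations surrounding the appropriate level; five concentrations were tested over 48 hours in 96-well plates. GI50: concentration for 50% inhibition of growth.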 Calls of active or inactive are those of the source. Cut-off read from the data, not from the text of the source: active = GI50 up to about 1.1 µM and inactive = higher.
Tests used:
Assay in all cases: NCI tumour cell line growth inhibition, 48 h
UACC-62 = system: UACC-62
HCT-15 = system: HCT-15
TK-10 = system: TK-10
MDA-N = system: MDA-N
HOP-62 = system: HOP-62
SF-295 = system: SF-295
RPMI-8226 = system: RPMI-8226
SW-620 = system: SW-620
MCF7 = system: MCF7
OVCAR-4 = system: OVCAR-4
DU-145 = system: DU-145
SF-539 = system: SF-539
NCI-H226 = system: NCI-H226
A549 = system: A549
IGROV-1 = system: IGROV-1
NCI-H522 = system: NCI-H522
A498 = system: A498
RXF 393 = system: RXF 393
K562 = system: K562
ACHN = system: ACHN
COLO 205 = system: COLO 205
EKVX = system: EKVX
KM12 = system: KM12
T47D = system: T47D
SR = system: SR
Hs-578T = system: Hs-578T
MOLT-4 = system: MOLT-4
OVCAR-5 = system: OVCAR-5
MDA-MB-231 = system: MDA-MB-231
PC-3 = system: PC-3
UACC-257 = system: UACC-257
OVCAR-3 = system: OVCAR-3
SF-268 = system: SF-268
NCI-H460 = system: NCI-H460
NCI/ADR-RES = system: NCI/ADR-RES
SK-MEL-2 = system: SK-MEL-2
HT-29 = system: HT-29
SK-MEL-5 = system: SK-MEL-5
SK-OV-3 = system: SK-OV-3
NCI-H23 = system: NCI-H23
786-0 = system: 786-0
SNB-75 = system: SNB-75
CCRF-CEM = system: CCRF-CEM
HL-60 = system: HL-60
OVCAR-8 = system: OVCAR-8
HOP-92 = system: HOP-92
SN12C = system: SN12C
SNB-19 = system: SNB-19
HCT-116 = system: HCT-116
SK-MEL-28 = system: SK-MEL-28
U-251 = system: U-251
CAKI-1 = system: CAKI-1
UO-31 = system: UO-31
HCC 2998 = system: HCC 2998
MDA-MB-435 = system: MDA-MB-435
Malme-3M = system: Malme-3M
LOX IMVI = system: LOX IMVI
BT-549 = system: BT-549
M14 = system: M14

SMILES: C1=C\CCCCN2C[C@H]3CCCC/C=C\CCCCN4CC[C@@H]([C@H](CCCCCC/1)C4)[C@H](C3)C2
- GI50 (UACC-62): 1.87 µM (inactive)
- GI50 (HCT-15): 1.77 µM
- GI50 (TK-10): 2.28 µM (inactive)
- GI50 (MDA-N): 1.75 µM (inactive)
- GI50 (HOP-62): 2.23 µM (inactive)
- GI50 (SF-295): 1.71 µM (inactive)
- GI50 (RPMI-8226): 1.57 µM (inactive)
- GI50 (SW-620): 2.44 µM (inactive)
- GI50 (MCF7): 1.93 µM (inactive)
- GI50 (OVCAR-4): 1.62 µM (inactive)
- GI50 (DU-145): 5.48 µM (inactive)
- GI50 (SF-539): 1.87 µM (inactive)
- GI50 (NCI-H226): 17.6 µM (inactive)
- GI50 (A549): 2.09 µM (inactive)
- GI50 (IGROV-1): 3.37 µM (inactive)
- GI50 (NCI-H522): 1.69 µM (inactive)
- GI50 (A498): 6.65 µM (inactive)
- GI50 (RXF 393): 1.52 µM (inactive)
- GI50 (K562): 1.47 µM (inactive)
- GI50 (ACHN): 2.07 µM (inactive)
- GI50 (COLO 205): 2.07 µM (inactive)
- GI50 (EKVX): 7.11 µM (inactive)
- GI50 (KM12): 1.82 µM (inactive)
- GI50 (T47D): 2.61 µM (inactive)
- GI50 (SR): 2.4 µM (inactive)
- GI50 (Hs-578T): 2.05 µM (inactive)
- GI50 (MOLT-4): 1.49 µM (inactive)
- GI50 (OVCAR-5): 7.5 µM (inactive)
- GI50 (MDA-MB-231): 0.979 µM (active)
- GI50 (PC-3): 3.12 µM (inactive)
- GI50 (UACC-257): 1.76 µM (inactive)
- GI50 (OVCAR-3): 1.8 µM (inactive)
- GI50 (SF-268): 2.65 µM (inactive)
- GI50 (NCI-H460): 1.76 µM (inactive)
- GI50 (NCI/ADR-RES): 3.12 µM (inactive)
- GI50 (SK-MEL-2): 1.88 µM (inactive)
- GI50 (HT-29): 2.07 µM (inactive)
- GI50 (SK-MEL-5): 1.61 µM (inactive)
- GI50 (SK-OV-3): 8.09 µM (inactive)
- GI50 (NCI-H23): 6.24 µM (inactive)
- GI50 (786-0): 1.75 µM (inactive)
- GI50 (SNB-75): 2.16 µM (inactive)
- GI50 (CCRF-CEM): 2.58 µM (inactive)
- GI50 (HL-60): 2.31 µM (inactive)
- GI50 (OVCAR-8): 2.84 µM (inactive)
- GI50 (HOP-92): 2.38 µM (inactive)
- GI50 (SN12C): 10 µM (inactive)
- GI50 (SNB-19): 2.06 µM (inactive)
- GI50 (HCT-116): 2.11 µM (inactive)
- GI50 (SK-MEL-28): 1.93 µM (inactive)
- GI50 (U-251): 2.2 µM (inactive)
- GI50 (CAKI-1): 2.79 µM (inactive)
- GI50 (UO-31): 1.66 µM (inactive)
- GI50 (HCC 2998): 0.51 µM (active)
- GI50 (MDA-MB-435): 1.86 µM (inactive)
- GI50 (Malme-3M): 1.85 µM (inactive)
- GI50 (LOX IMVI): 1.74 µM (inactive)
- GI50 (BT-549): 6.79 µM (inactive)

SMILES: Nc1nc(Cl)cc(NCC2(CO)CC(Cc3ccccc3)C2)n1 (stereo unspecified)
- GI50 (UACC-62): 27.5 µM (inactive)
- GI50 (HCT-15): 9.55 µM
- GI50 (TK-10): 25.6 µM (inactive)
- GI50 (MDA-N): 25.1 µM (inactive)
- GI50 (HOP-62): > 66.5 µM (inactive)
- GI50 (SF-295): 11.3 µM (inactive)
- GI50 (RPMI-8226): 15 µM (inactive)
- GI50 (SW-620): > 65.6 µM (inactive)
- GI50 (MCF7): 11.2 µM (inactive)
- GI50 (OVCAR-4): 24.2 µM (inactive)
- GI50 (DU-145): > 53.5 µM (inactive)
- GI50 (SF-539): 59.3 µM (inactive)
- GI50 (NCI-H226): 13.2 µM (inactive)
- GI50 (A549): 19.1 µM (inactive)
- GI50 (IGROV-1): 48.4 µM (inactive)
- GI50 (M14): 16.2 µM (inactive)
- GI50 (NCI-H522): 36.4 µM (inactive)
- GI50 (A498): 10.1 µM (inactive)
- GI50 (RXF 393): 20.4 µM (inactive)
- GI50 (K562): 2.92 µM (inactive)
- GI50 (ACHN): 32 µM (inactive)
- GI50 (COLO 205): 29.8 µM (inactive)
- GI50 (EKVX): 3.35 µM (inactive)
- GI50 (KM12): 35.1 µM (inactive)
- GI50 (T47D): 1.34 µM (inactive)
- GI50 (SR): 9.27 µM (inactive)
- GI50 (Hs-578T): 38.7 µM (inactive)
- GI50 (MOLT-4): 16.5 µM (inactive)
- GI50 (OVCAR-5): > 58.7 µM (inactive)
- GI50 (MDA-MB-231): 42.3 µM (inactive)
- GI50 (PC-3): 30.6 µM (inactive)
- GI50 (UACC-257): 31.5 µM (inactive)
- GI50 (OVCAR-3): 51.9 µM (inactive)
- GI50 (SF-268): 21.6 µM (inactive)
- GI50 (NCI-H460): 22.5 µM (inactive)
- GI50 (NCI/ADR-RES): 9.73 µM (inactive)
- GI50 (SK-MEL-2): 22.3 µM (inactive)
- GI50 (HT-29): 29 µM (inactive)
- GI50 (SK-MEL-5): 0.417 µM (active)
- GI50 (SK-OV-3): 52 µM (inactive)
- GI50 (NCI-H23): 34.4 µM (inactive)
- GI50 (786-0): > 60.8 µM (inactive)
- GI50 (SNB-75): 28.6 µM (inactive)
- GI50 (CCRF-CEM): 29.5 µM (inactive)
- GI50 (HL-60): 4.71 µM (inactive)
- GI50 (OVCAR-8): 42.2 µM (inactive)
- GI50 (HOP-92): 36.6 µM (inactive)
- GI50 (SN12C): > 92.3 µM (inactive)
- GI50 (SNB-19): 25.5 µM (inactive)
- GI50 (HCT-116): 5.81 µM (inactive)
- GI50 (SK-MEL-28): 60.4 µM (inactive)
- GI50 (U-251): 27.9 µM (inactive)
- GI50 (CAKI-1): > 73.5 µM (inactive)
- GI50 (UO-31): 23.4 µM (inactive)
- GI50 (HCC 2998): 30.7 µM (inactive)
- GI50 (MDA-MB-435): 19.4 µM (inactive)
- GI50 (Malme-3M): 29.4 µM (inactive)
- GI50 (LOX IMVI): 4.37 µM (inactive)
- GI50 (BT-549): 20.4 µM (inactive)

SMILES: Cc1nn(C(=O)c2ccccc2O)c2c1C(c1ccc([N+](=O)[O-])cc1)SC(=N)N2 (stereo unspecified)
- GI50 (UACC-62): 2.03 µM (inactive)
- GI50 (HCT-15): 5.14 µM
- GI50 (TK-10): > 4.5 µM (inactive)
- GI50 (MDA-N): 2.89 µM (inactive)
- GI50 (HOP-62): 4.92 µM (inactive)
- GI50 (SF-295): 3.13 µM (inactive)
- GI50 (RPMI-8226): > 7.03 µM (inactive)
- GI50 (SW-620): 6.17 µM (inactive)
- GI50 (MCF7): 3.72 µM (inactive)
- GI50 (OVCAR-4): 3.56 µM (inactive)
- GI50 (DU-145): 3.64 µM (inactive)
- GI50 (SF-539): 0.984 µM (active)
- GI50 (NCI-H226): > 4.12 µM (inactive)
- GI50 (A549): 1.47 µM (inactive)
- GI50 (IGROV-1): 1.88 µM (inactive)
- GI50 (M14): 7.19 µM (inactive)
- GI50 (NCI-H522): 5.6 µM (inactive)
- GI50 (A498): 2.78 µM (inactive)
- GI50 (RXF 393): 2.54 µM (inactive)
- GI50 (K562): 1.17 µM (inactive)
- GI50 (ACHN): 1.17 µM (inactive)
- GI50 (COLO 205): > 8.61 µM (inactive)
- GI50 (EKVX): > 10 µM (inactive)
- GI50 (KM12): 5.36 µM (inactive)
- GI50 (T47D): 5.71 µM (inactive)
- GI50 (SR): 4.83 µM (inactive)
- GI50 (Hs-578T): 0.676 µM (active)
- GI50 (MOLT-4): 4.94 µM (inactive)
- GI50 (OVCAR-5): > 7.76 µM (inactive)
- GI50 (MDA-MB-231): > 5.94 µM (inactive)
- GI50 (PC-3): > 9.53 µM (inactive)
- GI50 (UACC-257): 3.21 µM (inactive)
- GI50 (OVCAR-3): 4.05 µM (inactive)
- GI50 (SF-268): 6.68 µM (inactive)
- GI50 (NCI-H460): 3.79 µM (inactive)
- GI50 (NCI/ADR-RES): 4.51 µM (inactive)
- GI50 (SK-MEL-2): > 5.46 µM (inactive)
- GI50 (HT-29): > 6.67 µM (inactive)
- GI50 (SK-MEL-5): > 6.43 µM (inactive)
- GI50 (SK-OV-3): 6.38 µM (inactive)
- GI50 (NCI-H23): 2.79 µM (inactive)
- GI50 (786-0): > 5.24 µM (inactive)
- GI50 (SNB-75): 0.769 µM (active)
- GI50 (CCRF-CEM): 3.32 µM (inactive)
- GI50 (HL-60): 4.27 µM (inactive)
- GI50 (OVCAR-8): 4 µM (inactive)
- GI50 (HOP-92): 1.55 µM (inactive)
- GI50 (SN12C): 4.78 µM (inactive)
- GI50 (SNB-19): 6.05 µM (inactive)
- GI50 (HCT-116): 2.48 µM (inactive)
- GI50 (SK-MEL-28): > 10 µM (inactive)
- GI50 (U-251): 2.9 µM (inactive)
- GI50 (CAKI-1): 2.19 µM (inactive)
- GI50 (UO-31): 4.49 µM (inactive)
- GI50 (HCC 2998): > 10 µM (inactive)
- GI50 (MDA-MB-435): 1.45 µM (inactive)
- GI50 (Malme-3M): 4.42 µM (inactive)
- GI50 (LOX IMVI): 3.4 µM (inactive)
- GI50 (BT-549): 7.8 µM (inactive)
